From patent US20220228172A1 (priority 2019, published 2022)
Entries after “also recorded” stand apart in the source; their conditions may differ.

Experiments:
Type in all cases: cell-based, vesicular stomatitis virus
[1] = tested on: VSV-P-prot
[2] = tested on: VSV-GP-TM-IL12-Prot-Off
[3] = tested on: VSV-GP-IL12
[4] = tested on: VSV-GP-Luc-IL12-Prot-Off
[5] = tested on: VSV-L-Prot
[6] = tested on: VSV-GFP-Prot-L (VSV-Prot-Off)
[7] = tested on: VSV-GP-IL12-Prot-Off
[8] = tested on: VSV-L-Prot; remark: listed apart in the source
[9] = tested on: VSV-P-prot; remark: listed apart in the source
[10] = tested on: VSV-ΔP-RFP
[11] = tested on: standard recombinant VSV without P-prot control mechanism

`Cc1cccc(C)c1OCC(=O)N[C@@H](Cc1ccccc1)[C@@H](O)C[C@H](Cc1ccccc1)NC(=O)[C@H](C(C)C)N1CCCNC1=O` [lopinavir] was tested, and the “regulation of VSV-P-prot (data not shown)” value ([1]; 10 μM) was “shown to regulate VSV-P-prot”.

`COC(=O)N[C@H](C(=O)N[C@@H](Cc1ccccc1)[C@@H](O)CN(Cc1ccc(-c2ccccn2)cc1)NC(=O)[C@@H](NC(=O)OC)C(C)(C)C)C(C)(C)C` [atazanavir] was tested, and the “virus titer of VSV-GP-TM-IL12-Prot-Off (-w/ol, -fl)” value [2] was “inversely correlated”, the “virus titer of VSV-GP-IL12” value [3] was “uneffected” and the “virus titer of VSV-GP-Luc-IL12-Prot-Off with and without linker” value [4] was “inversely correlated”.

For `CC(C)(C)NC(=O)[C@@H]1CN(Cc2cccnc2)CCN1C[C@@H](O)C[C@@H](Cc1ccccc1)C(=O)N[C@H]1c2ccccc2C[C@H]1O` [indinavir], the “VSV-L-Prot replication in presence of protease inhibitor” value [5] was “replicates to high titers in its presence”, the “viral gene expression (GFP signal) of VSV-P-prot” value [1] was “facilitated” and the “viral replication (plaque formation) of VSV-P-prot” value (shortened to “viral replication … of VSV-P-prot”) [1] was “facilitated”.

For `CC(C)(C)NC(=O)[C@@H]1C[C@@H]2CCCC[C@@H]2CN1C[C@@H](O)[C@H](Cc1ccccc1)NC(=O)[C@H](CC(N)=O)NC(=O)c1ccc2ccccc2n1` [saquinavir], the “VSV-L-Prot replication in presence of protease inhibitor” value [5] was “replicates to high titers in its presence”, the “inhibition of VSV-GFP-Prot-L replication” value [6] was “even stronger inhibition of virus replication than amprenavir; also recorded: strongest suppression of viral replication” and the “virus titer of VSV-GP-IL12-Prot-Off with and without linker” value [7] was “dependent on the presence and concentration; also recorded: inversely correlated”. The “IL12 expression in supernatant (ELISA)” value [4] was “inversely correlated”, the “viral gene expression (GFP signal) of VSV-P-prot” value [1] was “facilitated” and the “viral replication … of VSV-P-prot” value [1] was “facilitated”.

In the case of `CC(C)CN(C[C@@H](O)[C@H](Cc1ccccc1)NC(=O)O[C@H]1CCOC1)S(=O)(=O)c1ccc(N)cc1` [amprenavir], the “VSV-L-Prot replication in presence of protease inhibitor” value [5] is reported as “replicates to high titers in its presence”, the “APV dose at which VSV-Prot-OFF activity started to decrease” value [6] is reported as 30 nM and the “amprenavir concentration at which VSV-GFP-Prot-L activity started to decline” value [6] is reported as 1 µM. The “amprenavir concentrations at which VSV-GFP-Prot-L activity was high” value [6] was 0 to 300 nM, the “effect on VSV-GFP-Prot-L activity (GFP expression, plaque assays)” value [6] was “stop of virus activity” and the “amprenavir dose at which VSV-L-prot activity started” value [8] was 100 nM. For the same compound, the “amprenavir dose of maximum VSV-L-prot activity” value [8] was 30 µM, the “VSV-P-prot activity at doses above the plateau” value [9] was “deteriorated at higher doses” and the “amprenavir dose at which VSV-P-prot activity started” value [9] was 100 nM. The “RFP signal in VSV-ΔP-RFP infected cells” value [10] was “only detectable in the presence of P196PR2 and a specific HIV protease inhibitor”, the “viral gene expression (GFP signal) of VSV-P-prot” value [1] was “strong GFP signal within 24 hours in the presence but not in the absence” and the “viral replication … of VSV-P-prot” value [1] was “protease inhibitor-dependent”. The “effect of amprenavir on viral replication of standard recombinant VSV” value [11] was “not affected”.
